Test results as given in US20250186656A1, “SHAPE MORPHING HYDROGEL ACTUATORS AND CONSTRUCTS” (Case Western Reserve University, priority 2022, published 2025).

What was measured:
[1] = test system: NIH 3T3 cell-laden bilayer constructs (cell-generated forces, actin polymerization); experiment: Cytochalasin D treatment of cell-laden bilayer constructs; format: cell-based
Source text: To accomplish bilayer printing, two syringes were loaded into the 3D printer: the first contained only reconstituted OMA microgels (cell-free bioink); the second contained the cell-laden bioink. For bilayer rectangles, a 25 mm×25 mm×0.2 mm square was printed with the cell-free bioink. Three cell-laden rectangles measuring 18 mm×4 mm×0.6 mm were then printed directly on top of the cell-free square, spaced 4 mm apart. After crosslinking constructs with UV light, the cell-free layer was cut with a razor blade to match the geometry of the cell-laden rectangles, forming bilayer rectangles. Dead controls were generated by incubating cells in acetone for 30 minutes before forming the cell-laden bioink.
To further illustrate the role of cell-generated forces in the observed spatiotemporal changes, the effect of Cytochalasin D, a known inhibitor of actin polymerization, was studied. Cytochalasin D was weighed and dissolved in sterile dimethyl sulfoxide (DMSO) at a concentration of 5 mM and stored at 4° C. Bilayer rectangles were printed and cultured in culture media supplemented with 0.1% v/v Cytochalasin D, resulting in a final Cytochalasin D concentration of 5 μM. Half of the media was replaced every day, with fresh Cytochalasin D added at 0.1% v/v each time. To ensure that any change in behavior is being caused by Cytochalasin D and not DMSO, four bilayer rectangles were cultured in culture media with 0.1% v/v DMSO. These media conditions were also compared to bilayer rectangles cultured in normal culture media.
After culture duration was complete, samples were fixed overnight in 10% neutral buffered formalin at room temperature. Samples were then dehydrated through one-hour incubations in 70% ethanol, 95% ethanol, 100% ethanol, 1:1 mixture of ethanol and xylenes, and two separate 100% xylenes. Samples were then submerged in molten paraffin for at least 24 hours before being embedded in paraffin blocks. 5-μm sections were obtained from blocks using a microtome and mounted on microscope slides. Hematoxilyn and eosin (H&E) sections were stained with hematoxilyn for 2 minutes followed by counterstaining with eosin for 30 seconds. Safrananin O and fast green sections were stained with 0.1% Safranin O for 5 minutes followed by counterstaining with 0.05% fast green for 1 minute. Alcian blue and nuclear fast red sections were stained with alcian blue ([…]) for 30 minutes followed by counterstaining with nuclear fast red for 5 minutes.
Dissection microscope images were used to measure bending angle as described in FIG. 72. Briefly, a circle with crosshairs was superimposed on each image using Microsoft Powerpoint. […] Using this method, a construct that has bent into a half circle is measured as 180 degrees, while a construct whose ends are touching is measured as 360 degrees. […]

cells = experiment: Cytocompatibility of UV absorber HMAP (cell viability); format: cell-based; conditions: all the tested concentrations

Row | Structure (SMILES) | macroscopic shape change of bilayer constructs ([1]; 5 μM in growth medium, over duration of culture (14 days)) | cell death (live/dead) ([1]; 5 μM, day 14) | cell morphology (live/dead images) ([1]; 5 μM, day 14) | fibrous border formation (H&E histology) ([1]; 5 μM, day 14) | cell viability (cells) [%]
1 | C=C1[C@@H](C)[C@H]2[C@H](Cc3ccccc3)NC(=O)[C@]23[C@H](OC(C)=O)/C=C/[C@@](C)(O)C(=O)[C@@H](C)C/C=C/[C@H]3[C@@H]1O [Cytochalasin D] | no macroscopic changes in shape | no sign of cell death | more rounded | unable to form this fibrous border | –
2 | CC(=O)c1ccc(O)c(C)c1 [HMAP, 4′-hydroxy-3′-methylacetophenone] | – | – | – | – | > 90
